Data reported in ChEMBL document CHEMBL3132854, “Synthesis and anticancer activity evaluation of resveratrolchalcone conjugates” (2014).

Assays:
DU-145 [1] = experiment: Growth inhibition of human DU145 cells assessed as cell growth at 10 uM by sulforhodamine B assay relative to control; values are per cent of control
[2] = Growth inhibition of human OVCAR4 cells assessed as cell growth at 10 uM by sulforhodamine B assay relative to control; values are per cent of control; settings: OVCAR-4
SNB-75 = experiment: Growth inhibition of human SNB75 cells assessed as cell growth at 10 uM by sulforhodamine B assay relative to control; values are per cent of control
[3] = Growth inhibition of human HCC2998 cells assessed as cell growth at 10 uM by sulforhodamine B assay relative to control; values are per cent of control; settings: HCC 2998
786-0 = experiment: Growth inhibition of human 786-0 cells assessed as cell growth at 10 uM by sulforhodamine B assay relative to control; values are per cent of control
T47D = experiment: Growth inhibition of human T47D cells assessed as cell growth at 10 uM by sulforhodamine B assay relative to control; values are per cent of control
UACC-62 = experiment: Growth inhibition of human UACC62 cells assessed as cell growth at 10 uM by sulforhodamine B assay relative to control; values are per cent of control
NCI-H322M = experiment: Growth inhibition of human NCI-H322M cells assessed as cell growth at 10 uM by sulforhodamine B assay relative to control; values are per cent of control
CAKI-1 = experiment: Growth inhibition of human CAKI-1 cells assessed as cell growth at 10 uM by sulforhodamine B assay relative to control; values are per cent of control
MDA-MB-231 = experiment: Growth inhibition of human MDA-MB-231 cells assessed as cell growth at 10 uM by sulforhodamine B assay relative to control; values are per cent of control
U-251 = experiment: Growth inhibition of human U251 cells assessed as cell growth at 10 uM by sulforhodamine B assay relative to control; values are per cent of control
A549 = experiment: Growth inhibition of human A549/ATCC cells assessed as cell growth at 10 uM by sulforhodamine B assay relative to control; values are per cent of control
PC-3 = experiment: Growth inhibition of human PC3 cells assessed as cell growth at 10 uM by sulforhodamine B assay relative to control; values are per cent of control
[4] = Growth inhibition of human RXF393 cells assessed as cell growth at 10 uM by sulforhodamine B assay relative to control; values are per cent of control; settings: RXF 393
BT-549 = experiment: Growth inhibition of human BT549 cells assessed as cell growth at 10 uM by sulforhodamine B assay relative to control; values are per cent of control
NCI-H226 = experiment: Growth inhibition of human NCI-H226 cells assessed as cell growth at 10 uM by sulforhodamine B assay relative to control; values are per cent of control
HT-29 = experiment: Growth inhibition of human HT-29 cells assessed as cell growth at 10 uM by sulforhodamine B assay relative to control; values are per cent of control
[5] = Growth inhibition of human UO31 cells assessed as cell growth at 10 uM by sulforhodamine B assay relative to control; values are per cent of control; settings: UO-31
MOLT-4 = experiment: Growth inhibition of human MOLT4 cells assessed as cell growth at 10 uM by sulforhodamine B assay relative to control; values are per cent of control
SK-MEL-5 = experiment: Growth inhibition of human SK-MEL-5 cells assessed as cell growth at 10 uM by sulforhodamine B assay relative to control; values are per cent of control
SF-295 = experiment: Growth inhibition of human SF295 cells assessed as cell growth at 10 uM by sulforhodamine B assay relative to control; values are per cent of control
MDA-MB-468 = experiment: Growth inhibition of human MDA-MB-468 cells assessed as cell growth at 10 uM by sulforhodamine B assay relative to control; values are per cent of control
SK-OV-3 = experiment: Growth inhibition of human SKOV3 cells assessed as cell growth at 10 uM by sulforhodamine B assay relative to control; values are per cent of control
SNB-19 = experiment: Growth inhibition of human SNB19 cells assessed as cell growth at 10 uM by sulforhodamine B assay relative to control; values are per cent of control
MDA-MB-435 = experiment: Growth inhibition of human MDA-MB-435 cells assessed as cell growth at 10 uM by sulforhodamine B assay relative to control; values are per cent of control
IGROV-1 [6] = experiment: Growth inhibition of human IGROV1 cells assessed as cell growth at 10 uM by sulforhodamine B assay relative to control; values are per cent of control
NCI-H522 = experiment: Cytotoxicity against human NCI-H522 cells by sulforhodamine B assay; format: functional
[7] = Cytotoxicity against human UO31 cells by sulforhodamine B assay; format: functional
IGROV-1 [8] = experiment: Cytotoxicity against human IGROV1 cells by sulforhodamine B assay; format: functional
COLO 205 = experiment: Cytotoxicity against human COLO205 cells by sulforhodamine B assay; format: functional
HCT-15 = experiment: Cytotoxicity against human HCT15 cells by sulforhodamine B assay; format: functional
DU-145 [9] = experiment: Cytotoxicity against human DU145 cells by sulforhodamine B assay; format: functional
[10] = read-out: LC50 (the source's name)

**Q.** Which results are given for COc1ccc(/C=C/c2ccc(/C=C/C(=O)c3ccc(Cl)cc3)cc2)cc1?
**A.** growth, % of control at 10 µM (DU-145 [1]): 103%; growth, % of control at 10 µM [2]: 102%; growth, % of control at 10 µM (SNB-75): 100%; growth, % of control at 10 µM [3]: 99.9%; growth, % of control at 10 µM (786-0): 91%; growth, % of control at 10 µM (T47D): 83.4%; growth, % of control at 10 µM (UACC-62): 105%; growth, % of control at 10 µM (NCI-H322M): 97%; growth, % of control at 10 µM (CAKI-1): 92.4%; growth, % of control at 10 µM (MDA-MB-231): 117%; growth, % of control at 10 µM (U-251): 99.7%; growth, % of control at 10 µM (A549): 91.8%; growth, % of control at 10 µM (PC-3): 108%; growth, % of control at 10 µM [4]: 115%; growth, % of control at 10 µM (BT-549): 93.4%; growth, % of control at 10 µM (NCI-H226): 112%; growth, % of control at 10 µM (HT-29): 93%; growth, % of control at 10 µM [5]: 80.7%; growth, % of control at 10 µM (MOLT-4): 92.5%; growth, % of control at 10 µM (SK-MEL-5): 107%; growth, % of control at 10 µM (SF-295): 87%; growth, % of control at 10 µM (MDA-MB-468): 113%; growth, % of control at 10 µM (SK-OV-3): 102%; growth, % of control at 10 µM (SNB-19): 97.5%; growth, % of control at 10 µM (MDA-MB-435): 95.3%

**Q.** Which results are given for COc1ccc(C(=O)/C=C/c2ccc(/C=C/c3ccc(F)cc3)cc2)cc1?
**A.** growth, % of control at 10 µM (DU-145 [1]): 109%; growth, % of control at 10 µM [2]: 115%; growth, % of control at 10 µM (SNB-75): 104%; growth, % of control at 10 µM [3]: 94.1%; growth, % of control at 10 µM (786-0): 95.3%; growth, % of control at 10 µM (T47D): 93.8%; growth, % of control at 10 µM (UACC-62): 104%; growth, % of control at 10 µM (NCI-H322M): 99.6%; growth, % of control at 10 µM (CAKI-1): 91.2%; growth, % of control at 10 µM (MDA-MB-231): 116%; growth, % of control at 10 µM (U-251): 100%; growth, % of control at 10 µM (A549): 94.9%; growth, % of control at 10 µM (IGROV-1 [6]): 112%; growth, % of control at 10 µM (PC-3): 106%; growth, % of control at 10 µM [4]: 117%; growth, % of control at 10 µM (BT-549): 101%; growth, % of control at 10 µM (NCI-H226): 109%; growth, % of control at 10 µM (HT-29): 104%; growth, % of control at 10 µM [5]: 94.4%; growth, % of control at 10 µM (MOLT-4): 96.2%; growth, % of control at 10 µM (SK-MEL-5): 104%; growth, % of control at 10 µM (SF-295): 94.9%; growth, % of control at 10 µM (MDA-MB-468): 112%; growth, % of control at 10 µM (SK-OV-3): 99.1%; growth, % of control at 10 µM (SNB-19): 100%; growth, % of control at 10 µM (MDA-MB-435): 98.9%

**Q.** What does the source list for COc1ccc(C(=O)/C=C/c2ccc(/C=C/c3ccc(Cl)cc3)cc2)cc1?
**A.** growth, % of control at 10 µM (DU-145 [1]): 108%; growth, % of control at 10 µM [2]: 107%; growth, % of control at 10 µM (SNB-75): 97.2%; growth, % of control at 10 µM [3]: 105%; growth, % of control at 10 µM (786-0): 94%; growth, % of control at 10 µM (T47D): 81.6%; growth, % of control at 10 µM (UACC-62): 92.7%; growth, % of control at 10 µM (NCI-H322M): 76.6%; growth, % of control at 10 µM (CAKI-1): 93.9%; growth, % of control at 10 µM (MDA-MB-231): 103%; growth, % of control at 10 µM (U-251): 101%; growth, % of control at 10 µM (A549): 100%; growth, % of control at 10 µM (IGROV-1 [6]): 95.7%; growth, % of control at 10 µM (PC-3): 98.7%; growth, % of control at 10 µM [4]: 116%; growth, % of control at 10 µM (BT-549): 103%; growth, % of control at 10 µM (NCI-H226): 101%; growth, % of control at 10 µM (HT-29): 104%; growth, % of control at 10 µM [5]: 102%; growth, % of control at 10 µM (MOLT-4): 92.6%; growth, % of control at 10 µM (SK-MEL-5): 106%; growth, % of control at 10 µM (SF-295): 96.5%; growth, % of control at 10 µM (MDA-MB-468): 110%; growth, % of control at 10 µM (SK-OV-3): 99.3%; growth, % of control at 10 µM (SNB-19): 97.6%; growth, % of control at 10 µM (MDA-MB-435): 103%

**Q.** Which results are given for COc1ccc(C(=O)/C=C/c2ccc(/C=C/c3cc(OC)c(OC)c(OC)c3)cc2)cc1?
**A.** growth, % of control at 10 µM (DU-145 [1]): 68.4%; growth, % of control at 10 µM [2]: 65.7%; growth, % of control at 10 µM (SNB-75): 59.8%; growth, % of control at 10 µM [3]: 94.1%; GI50 (NCI-H522): 3.3 µM; TGI (NCI-H522): 30.7 µM; CC50 (NCI-H522; [10]): > 100 µM; growth, % of control at 10 µM (786-0): 67.8%; GI50 ([7]; UO-31): 4.64 µM; TGI ([7]; UO-31): > 100 µM; CC50 ([7]; UO-31, read-out: LC50 (the source's name)): > 100 µM; growth, % of control at 10 µM (T47D): 43.4%; growth, % of control at 10 µM (UACC-62): 53.6%; growth, % of control at 10 µM (NCI-H322M): 64.8%; growth, % of control at 10 µM (CAKI-1): 74.4%; growth, % of control at 10 µM (MDA-MB-231): 76.8%; growth, % of control at 10 µM (U-251): 36.3%; GI50 (IGROV-1 [8]): 9.24 µM; TGI (IGROV-1 [8]): 76.4 µM; CC50 (IGROV-1 [8]; [10]): > 100 µM; growth, % of control at 10 µM (A549): 36.4%; growth, % of control at 10 µM (IGROV-1 [6]): 6.66%; growth, % of control at 10 µM (PC-3): 52.2%; GI50 (COLO 205): 13.7 µM; TGI (COLO 205): > 100 µM; CC50 (COLO 205; [10]): > 100 µM; growth, % of control at 10 µM [4]: 71.3%; growth, % of control at 10 µM (BT-549): 41.6%; growth, % of control at 10 µM (NCI-H226): 72.4%; growth, % of control at 10 µM (HT-29): 36.2%; growth, % of control at 10 µM [5]: 40.5%; growth, % of control at 10 µM (MOLT-4): 9.62%; growth, % of control at 10 µM (SK-MEL-5): 62%; growth, % of control at 10 µM (SF-295): 57.9%; GI50 (HCT-15): 2420 nM; TGI (HCT-15): > 100 µM; CC50 (HCT-15; [10]): > 100 µM; GI50 (DU-145 [9]): 10.2 µM; TGI (DU-145 [9]): > 100 µM; CC50 (DU-145 [9]; [10]): > 100 µM; growth, % of control at 10 µM (MDA-MB-468): 51.9%; growth, % of control at 10 µM (SK-OV-3): 102%; growth, % of control at 10 µM (SNB-19): 74.4%; growth, % of control at 10 µM (MDA-MB-435): 41%
